For one compound, %max and Efficacy results are on record in ChEMBL document CHEMBL5252552, “Defined concatenated α6α1β3γ2 GABAA receptor constructs reveal dual action of pyrazoloquinolinone allosteric modulators” (Bioorg Med Chem, 2019).

Holding throughout (assay type): cell-based
Assay [1] addresses T1, Gamma-aminobutyric acid receptor subunit alpha-1/alpha-6/beta-3/gamma-2 (Rattus norvegicus) (UniProt P18508+P30191+P62813+P63079). In words: Positive allosteric modulation of rat recombinant GABAA gamma2beta3alpha1-beta3alpha6 receptor expressed in Xenopus laevis oocytes assessed as maximal current at -80 mV holding potential under more potent phase in presence of GABA EC1 to 1.5 by two-electrode voltage-clamp assay relative to control. As to conditions: Oocyte. On the technique in general: Two-electrode voltage clamp holds a large cell at a set potential and records current.

Assay [2] concerns the target T2, Gamma-aminobutyric acid receptor subunit alpha-1/beta-3/gamma-2 (Rattus norvegicus) (UniProt P18508+P62813+P63079). The experiment in a line: Positive allosteric modulation of rat recombinant GABAA alpha1beta3gamma2 receptor expressed in Xenopus laevis oocytes assessed as maximal efficacy at -80 mV holding potential at 10 nM in presence of GABA EC1 to 1.5 by two-electrode voltage-clamp assay. Conditions: Oocyte.

Assay [3] deals with T2, Gamma-aminobutyric acid receptor subunit alpha-1/beta-3/gamma-2 (Rattus norvegicus). The experiment in a line: Positive allosteric modulation of rat recombinant GABAA alpha1beta3gamma2 receptor expressed in Xenopus laevis oocytes assessed as maximal efficacy at -80 mV holding potential at 30 uM in presence of GABA EC1 to 1.5 by two-electrode voltage-clamp assay. Conditions: Oocyte, filed as positive allosteric modulator.

For assay [4], the target named is T1, Gamma-aminobutyric acid receptor subunit alpha-1/alpha-6/beta-3/gamma-2 (Rattus norvegicus). In words: Positive allosteric modulation of rat recombinant GABAA gamma2beta3alpha1-beta3alpha6 receptor expressed in Xenopus laevis oocytes assessed as maximal efficacy at -80 mV holding potential at 1 uM in presence of GABA EC1 to 1.5 by two-electrode voltage-clamp assay. Conditions: Oocyte, filed as positive allosteric modulator.

The target in assay [5] is Gamma-aminobutyric acid receptor subunit alpha-6/beta-3/gamma-2 (Rattus norvegicus) (UniProt P18508+P30191+P63079). In words: Positive allosteric modulation of rat recombinant GABAA alpha6beta3gamma2 receptor expressed in Xenopus laevis oocytes assessed as maximal efficacy at -80 mV holding potential at 300 nM in presence of GABA EC1 to 1.5 by two-electrode voltage-clamp assay. As to conditions: Oocyte, filed as positive allosteric modulator.

In the case of `COc1ccc(-n2nc3c4ccc(Br)cc4[nH]cc-3c2=O)cc1`, the %max in assay [1] came to 30%. The Efficacy in assay [2] stood at 1%; in assay [3], 109%; in assay [4] it was 80%; in assay [5], 121%.
